According to patent US20170121683A1, “ARYL HYDROCARBON RECEPTOR DISRUPTION AND ENHANCEMENT” (priority 2015, published 2017):

Tested on: hESC-derived hematopoietic cells
Experiment: cNK, NKP and ILC3 phenotyping by flow cytometry
Assay type: cell-based, human
Source text: FIG. 15A. Gating scheme for identifying cNK (CD94^−CD117^+), NK progenitor cells (NKP, CD94^+CD117^− and CD94^+CD117^−LFA1^+), and ILC (CD94^−CD117^+LFA1^−) phenotypes. FIG. 15B. Representative flow cytometry profile of non-adherent hematopoietic cells differentiated from hESCs in the presence of DMSO, SR-1, or TCDD at Day 11+28. FIG. 15C. cNK, NKP, and NKP/ILC subpopulations from Day 11+28 DMSO, SR-1, and TCDD differentiated hESCs assessed for CD56 and LFA (CD11a/CD18) surface antigen expression. Representative flow cytometry plots are shown, n=3. FIG. 15D. Total percentage of cNK, NKP, and NKP/ILCs present in the non-adherent fraction of differentiating hESCs in the presence of DMSO, SR-1, or TCDD at Day 11+28. n=3, error bars represent SEM, *p<0.05, **p<0.01, ***p<0.001 as compared to DMSO treated controls and assessed by two-way ANOVA+Tukey-Kramer multiple comparisons post-hoc test. FIG. 15E. CD94^−CD117^+ subpopulations were further quantified for expression of LFA^+ (NKP) and LFA^− (ILC) by flow cytometry. n=3, error bars represent SEM, *p<0.05, **p<0.01 as compared to DMSO treated controls and assessed by two-way ANOVA+Tukey-Kramer multiple comparisons post-hoc test.
Spin-EBs were generated as described above (see also Knorr et al. Stem Cells Dev. 2013; 22(13):1861-9; Ni et al. Embryonic Stem Cell Immunobiol. Methods Protoc. Methods Mol. Biol. 2013; 1029:33-41; Hermanson et al. Stem Cells. 2016; 34(1):93-101). Following 11 days of mesoderm conditioning (Day 11), spin-EBs were collected and analyzed by flow cytometry to assess hematopoietic progenitor cell potential (see flow cytometry methods for antibodies used) (FIG. 4A). Spin-EBs yielding >30% CD34^+CD45^+ cells were transferred onto 24-well plates coated with irradiated OP9-DL1 cells (as described in Martin et al. Blood. 2008; 112(7):2730-7; La Motte-Mohs et al. Blood. 2005; 105(4):1431-9) (now defined as Day 11+0). EBs and OP9-DL1 were co-cultured in NK differentiation media (NKDM) supplemented initially with SCF, IL-15, IL-7, Flt3-L (all R&D Systems), and IL-3 (PeproTech) for one week; DMSO, SR-1, or TCDD were also added at Day 11+0. Every week, a one-half media change with NKDM supplemented with SCF, IL-15, IL-7, Flt3-L, and drugs was performed. hESCs were differentiated for four additional weeks (Day 11+28) and non-adherent cells were harvested for analysis.
The following additional antibodies were used (all anti-human): LFA-1 (CD11a/CD18)-APC-R700 (BD Biosciences), CD31-APC (eBioscience), CD33-APC (BD Biosciences), CD34-PECy7 (BD Biosciences), CD34-APC (BD Biosciences), CD41a-APC (BD Biosciences), CD43-APC (BD Biosciences), CD45-APC (BD Biosciences), CD56-PECy7 (BD Biosciences), CD56-BV421 (BD Biosciences), CD94-PerCP-Cy5.5 (BD Biosciences), CD117-PECy7 (BD Biosciences), CD117-APC (eBiosciences), CD144-APC (eBioscience). Samples were analyzed on either an LSRFortessa or LSRII flow cytometer (BD Biosciences). Gating was set relative to isotype controls of identical fluorophores. Data from flow cytometry was analyzed using FlowJo software (Treestar, Ashland, Oreg.).
To assess the effects of AHR modification on NK cell and ILC specification, non-adherent hematopoietic cells derived from hESCs on Day 11+28 cultured in NKDM supplemented with DMSO, SR-1, or TCDD were harvested as single-cell suspensions. Cells were washed with DPBS, filtered, and stained with the following antibodies (all anti-human): CD56-BV421, CD94-PerCP-Cy5.5, CD117-PECy7, and LFA-1 (CD11a/CD18)-APC-R700 in sterile FACS Buffer (DPBS+2% FBS and 0.1% sodium azide) for 30 minutes at 4° C. Cells were washed with FACS buffer and cells were counterstained with Sytox Blue (ThermoFisher Scientific) immediately prior to sorting. Live NKP, cNK, and ILC3 populations were sorted directly into FACS tubes containing NKDM basal media using a FACSAria II (BD Biosciences) cell sorter. Cells were immediately centrifuged, washed once with PBS, and processed from total RNA isolation as described above.

[1] = Day 11+28, non-adherent fraction, n=3

SMILES	shift of NKP population compared to DMSO (Day 11+28)	percentage of CD94−CD117+ cells absent for LFA1 (ILC3) (Day 11+28, n=3)	CD94−CD117+ cells, total percentage [1]	change in CD94−CD117+ population compared to DMSO (Day 11+28)	NKP (CD94+CD117+) cells, total percentage [1]	cNK cells (CD94+CD117−), total percentage [1]
Clc1cc2c(cc1Cl)Oc1cc(Cl)c(Cl)cc1O2 [TCDD, 2,3,7,8-tetrachlorodibenzo-p-dioxin]	significantly shifted hESC-derived hematopoietic cells away from NKPs	69.4±4.57%	28.5±4.42%	–	–	–
CC(C)n1cnc2c(NCCc3ccc(O)cc3)nc(-c3csc4ccccc34)nc21 [SR-1, StemReginin-1]	–	–	–	significant reduction	16.13±0.58%	37.0±2.92%
